# Columns and labels:
# [1] = molecular target: MET kinase (c-MET), kinase domain of human Met (Homo sapiens, UniProt P08581); assay: MET luminescence-based enzyme assay (Kinase-Glo)
# GTL16 = GTL16 cell assay (EC50); format: cell-based; settings: Homo sapiens, GTL 16
# Experimental: Compounds were tested in the following assays in duplicate. 96-well XTT assay: Cells were grown in growth media containing various concentrations of compounds (duplicates) on a 96-well flat bottom plate for 72 hours at 37° C. in 5% CO2. The starting cell number was 5000 cells per well and volume was 120 μl. At the end of the 72-hour incubation, 40 μl of XTT labeling mixture (50:1 solution of sodium 3′-[1-(phenylaminocarbonyl)-3,4-tetrazolium]-bis(4-methoxy-6-nitro) benzene sulfonic acid hydrate and Electron-coupling reagent: PMS (N-methyl dibenzopyrazine methyl sulfate) were added to each well of the plate. After an additional 2-6 hours […] with a spectrophotometer.
# MET kinase (c-MET), kinase domain of human Met, sequence (P08581 1078-1345 limits assumed): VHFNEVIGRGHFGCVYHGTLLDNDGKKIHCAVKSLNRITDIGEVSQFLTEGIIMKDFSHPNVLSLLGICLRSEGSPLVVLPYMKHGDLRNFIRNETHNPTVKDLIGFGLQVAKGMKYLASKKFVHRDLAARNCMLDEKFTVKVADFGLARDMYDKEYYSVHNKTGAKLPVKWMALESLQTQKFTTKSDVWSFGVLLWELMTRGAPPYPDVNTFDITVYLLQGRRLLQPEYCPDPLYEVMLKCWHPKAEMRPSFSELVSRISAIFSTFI
smiles,measurement,setting,value
Cc1ccc2nnc(Cc3ccc4ncc(-c5cncnc5)cc4c3)n2n1 [compound 129],IC50,[1],100 to 1000 nM
same,EC50,GTL16; Table 2,1000 to 10000 nM
N#Cc1cccc(-c2ccc3nnc(C(F)c4ccc5ncccc5c4)n3n2)c1 (stereo not shown) [compound 22],IC50,[1],100 to 1000 nM
same,EC50,GTL16; Table 1,1000 to 10000 nM
CN1CCN(c2ccc3nnc(Cc4ccc5ncccc5c4)n3n2)CC1 [compound 113],IC50,[1],100 to 1000 nM
same,EC50,GTL16; Table 1,100 to 1000 nM
Cc1ccc2nnc(Cc3ccc4ncc(-c5cc6ccccc6[nH]5)cc4c3)n2n1 [compound 137],IC50,[1],< 100 nM
same,EC50,GTL16; Table 2,100 to 1000 nM
NS(=O)(=O)c1ccc(Oc2ccc3nnc(Cc4ccc5ncccc5c4)n3n2)cc1 [compound 10],IC50,[1],1000 to 10000 nM
same,EC50,GTL16; Table 1,10000 to 50000 nM
FC(F)(F)c1cccc(-c2ccc3nnc(Cc4ccc5ncccc5c4)n3n2)c1 [compound 78],IC50,[1],< 100 nM
same,EC50,GTL16; Table 1,< 100 nM
"Cn1cnc2ccc(Cc3nnc4ccc(-c5ccccc5)nn34)cc21 [compound 68, 3-(3-Methyl-3H-benzoimidazol-5-ylmethyl)-6-phenyl-[1,2,4]triazolo[4,3-b]pyridazine]",IC50,[1],100 to 1000 nM
same,EC50,GTL16; Table 1,100 to 1000 nM
CC(=O)Nc1cccc(-c2ccc3nnc(Cc4ccc5ncccc5c4)n3n2)c1 [compound 57],IC50,[1],100 to 1000 nM
same,EC50,GTL16; Table 1,1000 to 10000 nM
"c1cnc2ccc(Cc3nnc4ccc(C5CC5)nn34)cc2c1 [compound 109, 6-(6-Cyclopropyl-[1,2,4]triazolo[4,3-b]pyridazin-3-ylmethyl)-quinoline]",IC50,[1],100 to 1000 nM
same,EC50,GTL16; Table 1,100 to 1000 nM
CCNC(=O)c1ccc(-c2ccc3nnc(Cc4ccc5ncsc5c4)n3n2)cc1F [compound 94],IC50,[1],100 to 1000 nM
same,EC50,GTL16; Table 1,100 to 1000 nM
CNC(=O)c1ccc(-c2ccc3nnc(C(C)c4ccc5ncccc5c4)n3n2)cc1F (stereo not shown) [compound 80],IC50,[1],< 100 nM
same,EC50,GTL16; Table 1,< 100 nM
Cn1cc(-c2ccc3nnc(Cc4ccc5ncsc5c4)n3n2)cn1 [compound 96],IC50,[1],< 100 nM
same,EC50,GTL16; Table 1,< 100 nM
Nc1nc2ccc(Cc3nnc4ccc(-c5ccccc5)nn34)cc2s1 [compound 42],IC50,[1],100 to 1000 nM
same,EC50,GTL16; Table 1,1000 to 10000 nM
CC(C)NC(=O)c1ccc(-c2ccc3nnc(Cc4ccc5ncsc5c4)n3n2)cc1F [compound 95],IC50,[1],< 100 nM
same,EC50,GTL16; Table 1,100 to 1000 nM
CS(=O)(=O)c1cccc(-c2ccc3nnc(Cc4ccc5ncccc5c4)n3n2)c1 [compound 49],IC50,[1],< 100 nM
same,EC50,GTL16; Table 1,< 100 nM
"Cc1ccc2nnc(Cc3ccc4ncc(-c5cn[nH]c5)cc4c3)n2n1 [compound 125, 6-(6-Methyl-[1,2,4]triazolo[4,3-b]pyridazin-3-ylmethyl)-3-(1H-pyrazol-4-yl)-quinoline]",IC50,[1],< 100 nM
same,EC50,GTL16; Table 2,100 to 1000 nM
Cc1ccc2nnc(Cc3ccc4ncc(-c5ccc[nH]5)cc4c3)n2n1 [compound 138],IC50,[1],< 100 nM
same,EC50,GTL16; Table 2,1000 to 10000 nM
O=C(NCCO)c1ccc(-c2ccc3nnc(Cc4ccc5ncccc5c4)n3n2)cc1F [compound 74],IC50,[1],< 100 nM
same,EC50,GTL16; Table 1,100 to 1000 nM
CC(c1ccc2ncsc2c1)c1nnc2ccc(-c3cnn(C)c3)nn12 (stereo not shown) [compound 79],IC50,[1],< 100 nM
same,EC50,GTL16; Table 1,< 100 nM
Fc1cc(F)cc(-c2ccc3nnc(Cc4ccc5ncccc5c4)n3n2)c1 [compound 70],IC50,[1],< 100 nM
same,EC50,GTL16; Table 1,100 to 1000 nM
Oc1ccc(Cc2nnc3ccc(Cl)nn23)cc1 [compound 13],IC50,[1],1000 to 10000 nM
same,EC50,GTL16; Table 1,10000 to 50000 nM
"CCc1ccc2nnc(Cc3c(F)cc4ncc(-c5cnn(C)c5)cc4c3F)n2n1 [compound 166, 6-(6-Ethyl-[1,2,4]triazolo[4,3-b]pyridazin-3-ylmethyl)-5,7-difluoro-3-(1-methyl-1H-pyrazol-4-yl)-quinoline]",IC50,[1],< 100 nM
same,EC50,GTL16; Table 2,< 100 nM
NCc1cccc(-c2ccc3nnc(Cc4ccc5ncccc5c4)n3n2)c1 [compound 55],IC50,[1],< 100 nM
same,EC50,GTL16; Table 1,100 to 1000 nM
CNS(=O)(=O)c1ccc(-c2ccc3nnc(Cc4ccc5ncccc5c4)n3n2)cc1 [compound 37],IC50,[1],100 to 1000 nM
same,EC50,GTL16; Table 1,< 100 nM
COc1cccc(Oc2ccc3nnc(Cc4ccc5ncccc5c4)n3n2)c1 [compound 9],IC50,[1],100 to 1000 nM
same,EC50,GTL16; Table 1,100 to 1000 nM
Fc1ccc(-c2ccc3nnc(Cc4ccc5ncccc5c4)n3n2)cc1 [compound 63],IC50,[1],100 to 1000 nM
same,EC50,GTL16; Table 1,100 to 1000 nM
CS(=O)(=O)c1ccc(-c2ccc3nnc(Cc4ccc5ncccc5c4)n3n2)cc1 [compound 5],IC50,[1],100 to 1000 nM
same,EC50,GTL16; Table 1,100 to 1000 nM
Fc1ccc(Oc2ccc3nnc(Cc4ccc5ncccc5c4)n3n2)cc1 [compound 6],IC50,[1],100 to 1000 nM
same,EC50,GTL16; Table 1,100 to 1000 nM
"Cc1ccc2nnc(Cc3ccc4ncc(-c5cnn(CC(N)=O)c5)cc4c3)n2n1 [compound 149, 2-{4-[6-(6-Methyl-[1,2,4]triazolo[4,3-b]pyridazin-3-ylmethyl)-quinolin-3-yl]-pyrazol-1-yl}-acetamide]",IC50,[1],< 100 nM
same,EC50,GTL16; Table 2,1000 to 10000 nM
"Cn1cc(-c2cnc3ccc(Cc4nnc5ccc(C(F)(F)F)nn45)cc3c2)cn1 [compound 123, 3-(1-Methyl-1H-pyrazol-4-yl)-6-(6-trifluoromethyl-[1,2,4]triazolo[4,3-b]pyridazin-3-ylmethyl)-quinoline]",IC50,[1],< 100 nM
same,EC50,GTL16; Table 2,100 to 1000 nM
"C[C@@H](c1ccc2ncsc2c1)c1nnc2ccc(-c3cccc(C#N)c3)nn12 [compound 103, (S)-3-[3-(1-Benzothiazol-6-yl-ethyl)-[1,2,4]triazolo[4,3-b]pyridazin-6-yl]-benzonitrile]",IC50,[1],< 100 nM
same,EC50,GTL16; Table 1,< 100 nM
"Brc1cnc2ccc(Cc3nnc4nccnn34)cc2c1 [compound 117, 3-Bromo-6-[1,2,4]triazolo[4,3-b][1,2,4]triazin-3-ylmethyl-quinoline]",IC50,[1],< 100 nM
same,EC50,GTL16; Table 1,< 100 nM
CNC(=O)c1ccc(-c2ccc3nnc(C(C)c4ccc5ncsc5c4)n3n2)cc1F (stereo not shown) [compound 82],IC50,[1],< 100 nM
same,EC50,GTL16; Table 1,< 100 nM
Cc1ccc2nnc(Cc3ccc4ncc(-c5cnn(CCC#N)c5)cc4c3)n2n1 [compound 148],IC50,[1],< 100 nM
same,EC50,GTL16; Table 2,< 100 nM
CS(=O)(=O)Nc1cccc(-c2ccc3nnc(Cc4ccc5ncccc5c4)n3n2)c1 [compound 51],IC50,[1],< 100 nM
same,EC50,GTL16; Table 1,100 to 1000 nM
CCC(=O)Cn1cc(-c2cnc3ccc(Cc4nnc5ccc(C)nn45)cc3c2)cn1 [compound 143],IC50,[1],< 100 nM
same,EC50,GTL16; Table 2,< 100 nM
Cc1ccc2nnc(Cc3ccc4ncc(-c5ccc(C(=O)O)cc5)cc4c3)n2n1 [compound 136],IC50,[1],100 to 1000 nM
same,EC50,GTL16; Table 2,1000 to 10000 nM
C=Cc1ccc2nnc(Cc3ccc4ncccc4c3)n2n1 [compound 107],IC50,[1],100 to 1000 nM
same,EC50,GTL16; Table 1,100 to 1000 nM
CCNS(=O)(=O)c1cccc(-c2ccc3nnc(Cc4ccc5ncccc5c4)n3n2)c1 [compound 3],IC50,[1],< 100 nM
same,EC50,GTL16; Table 1,< 100 nM
CNc1ccc2nnc(Cc3ccc4ncc(-c5cnn(C)c5)cc4c3)n2n1 [compound 160],IC50,[1],< 100 nM
same,EC50,GTL16; Table 2,< 100 nM
Cn1cc(-c2cnc3ccc(Cc4nnc5ccc(N)nn45)cc3c2)cn1 [compound 161],IC50,[1],< 100 nM
same,EC50,GTL16; Table 2,< 100 nM
CC(c1ccc2ncccc2c1)c1nnc2ccc(-c3cccc(F)c3)nn12 (stereo not shown) [compound 20],IC50,[1],< 100 nM
same,EC50,GTL16; Table 1,< 100 nM
c1ccc(Oc2ccc3nnc(Cc4ccc5ncccc5c4)n3n2)cc1 [compound 8],IC50,[1],100 to 1000 nM
same,EC50,GTL16; Table 1,100 to 1000 nM
"Fc1cc2ncccc2c(F)c1Cc1nnc2ccc(Cl)nn12 [compound 111, 6-(6-Chloro-[1,2,4]triazolo[4,3-b]pyridazin-3-ylmethyl)-5,7-difluoro-quinoline]",IC50,[1],100 to 1000 nM
same,EC50,GTL16; Table 1,100 to 1000 nM
"Cc1ccc2nnc(Cc3ccc4ncc(-c5cnn(CC6CN(S(C)(=O)=O)C6)c5)cc4c3)n2n1 [compound 172, 3-[1-(1-Methanesulfonyl-azetidin-3-ylmethyl)-1H-pyrazol-4-yl]-6-(6-methyl-[1,2,4]triazolo[4,3-b]pyridazin-3-ylmethyl)-quinoline]",IC50,[1],< 100 nM
same,EC50,GTL16; Table 2,100 to 1000 nM
Cc1ccc2nnc(Cc3ccc4ncc(-c5cccc(C(=O)O)c5)cc4c3)n2n1 [compound 135],IC50,[1],100 to 1000 nM
same,EC50,GTL16; Table 2,1000 to 10000 nM
Cc1ccc2nnc(Cc3cc4cc(-c5cnn(C)c5)cnc4cc3F)n2n1 [compound 158],IC50,[1],< 100 nM
same,EC50,GTL16; Table 2,< 100 nM
Cc1ccc2nnc(Cc3ccc4ncc(-c5cccnc5)cc4c3)n2n1 [compound 131],IC50,[1],< 100 nM
same,EC50,GTL16; Table 2,< 100 nM
CCCn1cc(-c2cnc3ccc(Cc4nnc5ccc(C)nn45)cc3c2)cn1 [compound 163],IC50,[1],< 100 nM
same,EC50,GTL16; Table 2,< 100 nM
CNS(=O)(=O)c1cccc(-c2ccc3nnc(Cc4ccc5ncccc5c4)n3n2)c1 [compound 48],IC50,[1],< 100 nM
same,EC50,GTL16; Table 1,< 100 nM
